Test systems include HL-60; MOLT-4; NCI-H226; RPMI-8226; SF-268; EKVX; SN12C; Hs-578T; LOX IMVI; MDA-N; 786-0; CAKI-1; IGROV-1; NCI/ADR-RES; TK-10; SK-MEL-2; SF-539; Malme-3M; A549.
Common to all, as to assay: DTP human tumour cell line panel, 48 h

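Growth conditions: 96-well plates. Treatment: test compound, 48 hours, 5 concentrations. Analysis: linear interpolation between bracketing concentrations; unreached endpoints set to highest concentration. Abbreviation: GI50, concentration required for 50% inhibition of growth.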 Activity calls are given as the source filed them. No stated cut-off is given here; in the data, active = GI50 up to about 1.1 µM and inactive = higher. A value given as a limit tells only on which side of the number the result lay.

Regarding `CC(=O)N(CCc1ccccc1)C(C#N)c1ccccc1` (centres undefined), the GI50 in the assay on HL-60, in the assay on MOLT-4, in the assay with NCI-H226, in the assay on RPMI-8226, with SF-268 and in the assay on EKVX was > 100 µM (inactive) each time. Also, the GI50 in the assay on SN12C, in the assay with Hs-578T, in the assay on LOX IMVI, in the assay with MDA-N, with 786-0 and in the assay on CAKI-1 was > 100 µM (inactive) in each case. Besides, the GI50 in the assay on IGROV-1, with NCI/ADR-RES, in the assay with TK-10, in the assay on SK-MEL-2, in the assay with SF-539 and in the assay with Malme-3M was > 100 µM (inactive) each time. Moreover, the GI50 with A549 was > 100 µM (inactive).

Turning to `NS(=O)(=O)c1ccc(/N=N/c2c(O)c(C(=O)O)cc3ccccc23)cc1`, the GI50 with HL-60, with MOLT-4, with NCI-H226, in the assay on RPMI-8226, in the assay with SF-268 and in the assay on EKVX was > 100 µM (inactive) in each case. Also, the GI50 in the assay on SN12C is > 100 µM (inactive); with Hs-578T, > 100 µM (inactive); with LOX IMVI it was 82.6 µM (inactive); with MDA-N it was 59.2 µM (inactive); in the assay on 786-0, > 100 µM (inactive); with CAKI-1 it was > 100 µM (inactive). Also, the GI50 is > 100 µM (inactive) in the assay with IGROV-1; > 100 µM (inactive) in the assay on NCI/ADR-RES; > 100 µM (inactive) in the assay with TK-10; > 100 µM (inactive) in the assay with SK-MEL-2; > 100 µM (inactive) in the assay with SF-539; 26.1 µM (inactive) with Malme-3M. For the same compound, the GI50 in the assay on A549 is > 100 µM (inactive).

As to `CC(C)(C)c1cc(C(C)(C)C)c2sc(=S)oc2c1O`, the GI50 in the assay with HL-60 was 7.45 µM (inactive); with MOLT-4, 5.2 µM (inactive); in the assay with NCI-H226 it was 15.2 µM (inactive); with RPMI-8226, 7.33 µM (inactive); with SF-268, 3.4 µM (inactive); in the assay with EKVX, 3.85 µM (inactive). In addition, the GI50 was 6.14 µM (inactive) in the assay on SN12C; 4.43 µM (inactive) in the assay on Hs-578T; 5.05 µM (inactive) in the assay on LOX IMVI; 6.01 µM (inactive) in the assay with MDA-N; 7.45 µM (inactive) in the assay with 786-0; 5.64 µM (inactive) in the assay on CAKI-1. Moreover, the GI50 in the assay on IGROV-1 is 9.98 µM (inactive); with NCI/ADR-RES, 9.89 µM (inactive); in the assay on TK-10 it was 1.18 µM (inactive); in the assay on SK-MEL-2, 8.79 µM (inactive); in the assay with SF-539, 2.39 µM (inactive); in the assay with Malme-3M, 15.8 µM (inactive). In the assay on A549, the GI50 was 6.55 µM (inactive).

Regarding `O=C1N2CCc3c([nH]c4ccccc34)C23CC2CCCC12S3` (centres undefined), the GI50 is > 50 µM (inactive) with HL-60; 25.8 µM (inactive) in the assay with MOLT-4; > 50 µM (inactive) in the assay with NCI-H226; 27.4 µM (inactive) in the assay on RPMI-8226; 36.1 µM (inactive) in the assay with SF-268; 47.2 µM (inactive) with EKVX. Also, the GI50 in the assay on SN12C was 20.6 µM (inactive); in the assay on Hs-578T, 22 µM (inactive); in the assay with LOX IMVI it was 34.2 µM (inactive); in the assay on MDA-N it was 27.9 µM (inactive); in the assay on 786-0, 33.7 µM (inactive); in the assay on CAKI-1, > 50 µM (inactive). In addition, the GI50 in the assay on IGROV-1 is 24.8 µM (inactive); with NCI/ADR-RES, 10.7 µM (inactive); in the assay with TK-10, > 50 µM (inactive); in the assay on SK-MEL-2 it was > 50 µM (inactive); with SF-539, > 50 µM (inactive); with Malme-3M, 27.6 µM (inactive). For the same compound, the GI50 in the assay with A549 is 17.7 µM (inactive).

For the compound `O=C(O)/C=C/c1ccc(OS(=O)(=O)O)cc1`, the GI50 with HL-60, with MOLT-4, with NCI-H226, in the assay on RPMI-8226, in the assay with SF-268 and in the assay with EKVX was > 100 µM (inactive) each time. The GI50 in the assay on SN12C, in the assay with Hs-578T, with LOX IMVI, in the assay with MDA-N, with 786-0 and with CAKI-1 was > 100 µM (inactive) in each case. The GI50 in the assay on IGROV-1, in the assay with NCI/ADR-RES, in the assay on TK-10, with SK-MEL-2, in the assay with SF-539 and in the assay on Malme-3M was > 100 µM (inactive) each time. In the assay with A549, the GI50 was > 100 µM (inactive).

Turning to `COc1cc2c(cc1OC)C13CCN4CC5CCOC6CC(=O)N2C1C6C5CC43` (centres undefined), the GI50 with HL-60 is > 100 µM (inactive); in the assay with MOLT-4, 1.81 µM (inactive); in the assay on NCI-H226, > 100 µM (inactive); in the assay on RPMI-8226, > 100 µM (inactive); with SF-268, > 100 µM (inactive); in the assay on EKVX it was > 100 µM (inactive). The GI50 in the assay on SN12C, in the assay on Hs-578T, in the assay with LOX IMVI, with MDA-N, in the assay with 786-0 and in the assay with CAKI-1 was > 100 µM (inactive) each time. In addition, the GI50 in the assay with IGROV-1, with NCI/ADR-RES, in the assay with TK-10, with SK-MEL-2, with SF-539 and in the assay on Malme-3M was > 100 µM (inactive) each time. Also, in the assay with A549, the GI50 was > 100 µM (inactive).

In the case of `CNC(=O)CCCNC(=O)CCCC(=O)OC`, the GI50 in the assay with HL-60, in the assay on MOLT-4, in the assay with NCI-H226, in the assay on RPMI-8226, in the assay with SF-268 and in the assay with EKVX was > 100 µM (inactive) in each case. The GI50 in the assay with SN12C, in the assay on Hs-578T, with LOX IMVI, with MDA-N, in the assay on 786-0 and in the assay on CAKI-1 was > 100 µM (inactive) throughout. The GI50 with IGROV-1, with NCI/ADR-RES, in the assay on TK-10, in the assay on SK-MEL-2, in the assay on SF-539 and with Malme-3M was > 100 µM (inactive) throughout. Also, the GI50 in the assay with A549 was > 100 µM (inactive).

As to `Cc1nc(Cl)c(Cl)c(Cl)n1`, the 50% growth inhibitory concentration (GI50) in the assay with HL-60 is 0.0269 µM (active); in the assay on MOLT-4, < 0.0142 µM (active); in the assay with NCI-H226, 2.59 µM (inactive); in the assay on RPMI-8226 it was < 0.0398 µM (active); with SF-268, 1.92 µM (inactive); with EKVX, 0.357 µM (active). For the same compound, the GI50 is 0.284 µM (active) with SN12C; 0.48 µM (active) in the assay with Hs-578T; 0.0596 µM (active) in the assay on LOX IMVI; 1.6 µM (inactive) in the assay on MDA-N; 0.409 µM (active) with 786-0; < 0.01 µM (active) in the assay with CAKI-1. Also, the GI50 with IGROV-1 was 0.173 µM (active); in the assay with NCI/ADR-RES, 0.354 µM (active); in the assay on TK-10, 1.08 µM (active); in the assay with SK-MEL-2, 0.51 µM (active); with SF-539, 1.44 µM (inactive); in the assay on Malme-3M, 0.202 µM (active). For the same compound, the GI50 with A549 was 1.49 µM (inactive).

On to `Nc1nc(Cl)cc(NCC2CC(O)(CO)C2)n1` (centres undefined), for which the GI50 in the assay on HL-60, in the assay on MOLT-4, with NCI-H226, in the assay with RPMI-8226, in the assay on SF-268 and in the assay with EKVX was > 100 µM (inactive) in each case. The GI50 with SN12C, with Hs-578T, with LOX IMVI, in the assay on MDA-N, in the assay with 786-0 and in the assay with CAKI-1 was > 100 µM (inactive) in each case. Further, the GI50 in the assay with IGROV-1, with NCI/ADR-RES, with TK-10, in the assay with SK-MEL-2, in the assay with SF-539 and with Malme-3M was > 100 µM (inactive) in each case. The GI50 in the assay on A549 was > 100 µM (inactive).

Turning to `O=C1c2ccccc2C(=O)c2c(NCC(O)CO)ccc(NCC(O)CO)c21` (centres undefined), the GI50 in the assay on HL-60 is 63 µM (inactive); with MOLT-4, 32.2 µM (inactive); in the assay with NCI-H226 it was 51.4 µM (inactive); in the assay with RPMI-8226, 65 µM (inactive); in the assay on SF-268 it was 89.1 µM (inactive); in the assay with EKVX, > 100 µM (inactive). In addition, the GI50 is 71.3 µM (inactive) in the assay on SN12C; 68.7 µM (inactive) in the assay on Hs-578T; 28.3 µM (inactive) in the assay on LOX IMVI; 61.2 µM (inactive) in the assay on MDA-N; 69.7 µM (inactive) in the assay on 786-0; 56.6 µM (inactive) with CAKI-1. In addition, the GI50 in the assay on IGROV-1 was 49.4 µM (inactive); in the assay with NCI/ADR-RES, > 100 µM (inactive); in the assay with TK-10, 72.4 µM (inactive); with SK-MEL-2, 24.4 µM (inactive); in the assay on SF-539, 62.1 µM (inactive); in the assay with Malme-3M it was 91.2 µM (inactive). For the same compound, the GI50 in the assay with A549 is > 100 µM (inactive).

Turning to `O=NN(Cc1ccc(Cl)cc1)C(C(=O)O)c1ccccc1` (centres undefined), the GI50 in the assay with HL-60, in the assay with MOLT-4, in the assay with NCI-H226, in the assay with RPMI-8226, in the assay with SF-268 and in the assay on EKVX was > 100 µM (inactive) throughout. Besides, the GI50 with SN12C, in the assay with Hs-578T, in the assay on LOX IMVI, with MDA-N, in the assay with 786-0 and in the assay on CAKI-1 was > 100 µM (inactive) each time. Moreover, the GI50 in the assay on IGROV-1, with NCI/ADR-RES, with TK-10, in the assay with SK-MEL-2, in the assay on SF-539 and with Malme-3M was > 100 µM (inactive) in each case. The GI50 in the assay on A549 is > 100 µM (inactive).

The term GI50 denotes the concentration giving 50% growth inhibition.

These data come from ChEMBL document CHEMBL1201862, “PubChem BioAssay data set” (2004).
